Measured values from PMC5441849, “Carvacrol derivatives as mushroom tyrosinase inhibitors; synthesis, kinetics mechanism and molecular docking studies” (PLoS ONE, 2017).
Entries after “also recorded” stand apart in the source; their conditions may differ. Like-named read-outs stand apart in the source and are kept apart here.

How the values were obtained:
[1] = molecular target: T1, mushroom tyrosinase (Agaricus bisporus, UniProt C7FF04); experiment: Kinetic analysis of tyrosinase inhibition (Lineweaver-Burk and Dixon plots, diphenolase activity); format: biochemical, Agaricusbisporus; settings: for Type of inhibition: Lineweaver-Burk plots, oxidation of L-DOPA
T1 construct: purchased Sigma
T1 sequence (C7FF04 2-392): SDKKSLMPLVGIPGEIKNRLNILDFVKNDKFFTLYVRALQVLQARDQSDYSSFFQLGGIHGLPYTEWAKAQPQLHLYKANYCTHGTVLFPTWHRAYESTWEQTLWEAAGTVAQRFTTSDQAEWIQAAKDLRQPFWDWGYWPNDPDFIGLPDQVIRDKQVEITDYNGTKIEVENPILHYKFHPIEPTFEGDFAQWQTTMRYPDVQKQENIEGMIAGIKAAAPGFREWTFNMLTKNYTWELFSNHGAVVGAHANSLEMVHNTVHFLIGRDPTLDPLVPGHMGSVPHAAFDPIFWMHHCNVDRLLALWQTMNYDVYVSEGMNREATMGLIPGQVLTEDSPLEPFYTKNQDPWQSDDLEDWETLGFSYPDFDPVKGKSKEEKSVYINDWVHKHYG
Procedure: Pre-incubation and measurement time was the same as discussed in mushroom tyrosinase inhibition assay protocol. Formation of DOPAchrome was continuously monitored at 475nm for 5min at a 30s interval in the microplate reader after addition of enzyme.

[2] = molecular target: T1, mushroom tyrosinase; experiment: Reversibility of inhibition (remaining enzyme activity versus enzyme concentration); format: biochemical, Agaricusbisporus; settings: enzyme 2 to 10 μg/mL, L-DOPA, 37°C
Procedure: Assay conditions were same as described in assay protocolexceptthat the final concentration of enzyme was varied (2 to 10 μg/mL).

[3] = Dixon plot, L-DOPA substrate, read-out: Inhibition constant Ki

SMILES	Ki [1] [µM]	Type of inhibition [1]	Reversibility of enzyme inhibition [2]	Ki [1, 3] [µM]
Cc1ccc(C(C)C)cc1OC(=O)COC(=O)/C=C/c1ccc(O)cc1O [6c, 2-[2-methyl-5-(propan-2-yl)phenoxy]-2-oxoethyl (2E)-3-(2,4-dihydroxyphenyl)prop-2-enoate]	0.05	non-competitive inhibitor	irreversible; also recorded: irreversibly	–
Cc1ccc(C(C)C)cc1OC(=O)COC(=O)/C=C/c1ccc(O)cc1 [6b, 2-[2-methyl-5-(propan-2-yl)phenoxy]-2-oxoethyl (2E)-3-(4-hydroxyphenyl)prop-2-enoate]	–	mixed-type inhibition	irreversible	10
Cc1ccc(C(C)C)cc1OC(=O)COC(=O)c1ccc(O)cc1O [4c, 2-[2-methyl-5-(propan-2-yl)phenoxy]-2-oxoethyl 2,4-dihydroxybenzoate]	–	mixed-type inhibition	reversible inhibitor; also recorded: reversibly	19
